This is an account of results in US8697369B2, “Method for screening a test substance for activating a receptor associated with FGF 21 activity” (National Institute of Advanced Industrial Science and …, priority 2007, dated 2014).

The target of experiment [1] is T1, FGFR1c/betaKlotho-expressing BaF3 cells (Mus musculus, UniProt P16092+Q99N32).
T1 construct: the entire-length cDNA of mouse FGFR1c had been cloned; the entire-length cDNA of mouse betaKlotho was cloned into an animal cell expression vector; expressed in transfected cells; host or cells: BaF3 (mouse pro-B) cells
T1 sequence (P16092 22-822, one chain of several): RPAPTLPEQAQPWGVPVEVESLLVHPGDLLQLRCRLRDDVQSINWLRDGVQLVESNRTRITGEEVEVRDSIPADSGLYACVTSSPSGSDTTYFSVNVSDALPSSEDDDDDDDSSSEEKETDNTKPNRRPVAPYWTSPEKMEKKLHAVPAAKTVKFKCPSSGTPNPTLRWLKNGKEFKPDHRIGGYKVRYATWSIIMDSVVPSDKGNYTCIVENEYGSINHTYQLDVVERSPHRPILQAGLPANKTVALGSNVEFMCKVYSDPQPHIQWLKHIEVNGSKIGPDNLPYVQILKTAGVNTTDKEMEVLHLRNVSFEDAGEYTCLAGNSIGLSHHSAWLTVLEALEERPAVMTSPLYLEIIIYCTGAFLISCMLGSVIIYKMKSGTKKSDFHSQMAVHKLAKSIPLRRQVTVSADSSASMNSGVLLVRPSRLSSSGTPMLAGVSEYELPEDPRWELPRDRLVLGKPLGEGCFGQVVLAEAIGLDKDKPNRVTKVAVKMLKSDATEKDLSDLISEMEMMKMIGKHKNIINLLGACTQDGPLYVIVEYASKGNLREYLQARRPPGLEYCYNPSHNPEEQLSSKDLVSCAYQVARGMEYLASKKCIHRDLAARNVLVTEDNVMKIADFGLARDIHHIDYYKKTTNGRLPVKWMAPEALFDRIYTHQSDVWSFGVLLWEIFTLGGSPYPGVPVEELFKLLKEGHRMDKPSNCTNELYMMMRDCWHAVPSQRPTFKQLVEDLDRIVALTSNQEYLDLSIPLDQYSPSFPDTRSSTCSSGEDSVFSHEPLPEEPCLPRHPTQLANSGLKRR
The experiment is described as follows: DNA synthesis (thymidine incorporation) in FGFR1c/betaKlotho-expressing BaF3 cells. Format: cell-based. Here is the method: (§1) A commonly used measurement method is a cell growth stimulating activity measurement method described in Ornitz, D. M., Xu, J., Colvin, J. S., McEwen, D. G., MacArthur, C. A., Coulier, F., Gao, G. and Goldfarb, M. (1996) Receptor specificity of the fibroblast growth factor family. J Biol Chem, 271, 15292-15297. The summary thereof is as follows. FGF used as a measurement target is added to a culture solution containing a cultured cell having an FGF receptor on the surface thereof, and the obtained mixture is cultured for a certain period of time. Thereafter, a labeled thymidine is added to the culture solution, followed by further culture for a certain period of time. By measuring the amount of the labeled thymidine incorporated into polymeric DNA during the culture, the degree of FGF to activate DNA synthesis is evaluated. (In the present invention as well, this method was adopted when the activity of FGF21 was measured in Examples 4, 5, 6, 8, 9, and 10.)
FGFR1c-expressing BaF3 cells and FGFR1c- and betaKlotho-expressing BaF3 cells were prepared as follows. In the case of FGFR1c-expressing BaF3 cells, an animal cell expression vector into which the entire-length cDNA of mouse FGFR1c had been cloned (described in Ornitz, D. M., Xu, J., Colvin, J. S., McEwen, D. G., MacArthur, C. A., Coulier, F., Gao, G. and Goldfarb, M. (1996) Receptor specificity of the fibroblast growth factor family. J Biol Chem, 271, 15292-15297.) was introduced into BaF3 cells by an electroporation method. The cells were then cultured in the presence of G418 for approximately 2 weeks, so as to obtain drug-resistant clones. Thereafter, such clones were obtained as those capable of growing as a result of FGF1 stimulation. In the case of both FGFR1c- and betaKlotho-expressing BaF3 cells, the entire-length cDNA of mouse betaKlotho was cloned into an animal cell expression vector, and it was then introduced into the FGFR1c-expressing BaF3 cells. The cells were then cultured in the presence of Puromycin and G418 for approximately 2 weeks, so as to obtain drug-resistant clones. In the case of only betaKlotho-expressing BaF3 cells, a betaKlotho-expressing vector was introduced into BaF3 cells, and Puromycin-resistant clones were then obtained. The BaF3 cells, into which the aforementioned genes had been each introduced, were maintained in an RPMI1640 medium containing 10% FBS and interleukin 3 (IL3, supplied by adding a 5% condition medium of WEHI-3 cells). For the growth stimulation experiment, the cells were washed with an RPMI1640 medium, and they were then suspended in an RPMI1640 medium containing 10% FBS, followed by inoculating the suspension on a culture plate. Thereafter, the resultant cells were used.
Immediately after inoculation, BaF3 cells that had expressed each clone and only FGFR1c were stimulated by addition of FGF21 (open bar) or PBS (filled bar) used as a control in the presence of heparin, and they were then cultured for 42 hours. Thereafter, tritium-labeled thymidine was added to the culture solution, and the culture was further continued for 6 hours. Thereafter, the amount of thymidine incorporated into the cells was measured, so as to evaluate DNA synthesis. A DNA synthesis value obtained when the cells were not stimulated with FGF21 was defined as 1, and the ratio of a DNA synthesis value obtained by stimulating with FGF21 to the aforementioned DNA synthesis value was expressed using magnification. […]
(Incorporation of labelled thymidine or its analogues reports DNA synthesis.)

In experiment [2] the test system is FGFR3c/betaKlotho-expressing BaF3 cells. The experiment is described as follows: DNA synthesis (thymidine incorporation) in FGFR3c/betaKlotho-expressing BaF3 cells. Format: cell-based, mouse. Here is the method:
as §1
(§2) Whether other receptor molecules can also act as such FGF receptors was examined. An expression vector containing each FGFR (FGFR1b, R1c, R2b, R2c, R3b, R3c, and R4) (described in Ornitz, D. M., Xu, J., Colvin, J. S., McEwen, D. G., MacArthur, C. A., Coulier, F., Gao, G. and Goldfarb, M. (1996) Receptor specificity of the fibroblast growth factor family. J Biol Chem, 271, 15292-15297.) was introduced into betaKlotho-expressing BaF3 cells, so as to obtain clones that were resistant to Puromycin and G418, thereby obtaining FGFR/betaKlotho-expressing cells. Such cells were stimulated with FGF21, and the amount of DNA synthesized was measured.
The activity of FGF21 to stimulate the DNA synthesis of BaF3 cells that had expressed each FGFR (FGFR1c, R2c, F3c, and R4) as well as betaKlotho was compared with the activity of FGF19, which was evolutionally relative to FGF21. By procedures opposite to those of Example 5, namely, an expression vector containing betaKlotho was introduced into BaF3 cells that had expressed each type of FGFR, so as to obtain Puromycin- and G418-resistant clones, thereby obtaining FGFR/betaKlotho-expressing cells. The cells were stimulated with FGF21, FGF19, and FGF1 in the presence of heparin, while changing the amounts of FGF21, FGF19, and FGF1, as shown in the figure, and the amount of DNA synthesized was then measured.

Experiment [3] addresses T2, FGFR2c/betaKlotho-expressing BaF3 cells (Mus musculus, UniProt P21803+Q99N32).
T2 construct: the entire-length cDNA of mouse betaKlotho was cloned into an animal cell expression vector; expressed in transfected cells; host or cells: BaF3 (mouse pro-B) cells
Put plainly: DNA synthesis (thymidine incorporation) in FGFR2c/betaKlotho-expressing BaF3 cells. It is filed as cell-based. The note with it: BaF3 cells expressing FGFR2c and betaKlotho; presence of heparin. Here is the method: as §1, §2
(§3) The activity of FGF21 to stimulate the DNA synthesis of BaF3 cells that had expressed each FGFR (FGFR1c, R2c, F3c, and R4) as well as betaKlotho was compared with the activity of FGF19, which was evolutionally relative to FGF21. […] The cells were stimulated with FGF21, FGF19, and FGF1 in the presence of heparin, while changing the amounts of FGF21, FGF19, and FGF1, as shown in the figure, and the amount of DNA synthesized was then measured.

In experiment [4] the test system is FGFR4/betaKlotho-expressing BaF3 cells. Put plainly: DNA synthesis (thymidine incorporation) in FGFR4/betaKlotho-expressing BaF3 cells. It is filed as cell-based, mouse. The following applies: BaF3 cells expressing FGFR4 and betaKlotho; presence of heparin. Here is the method: as §1, §2, §3
FGFR4/betaKlotho-expressing BaF3 cells, sequence (Q03142 17-366 limits assumed, one chain of several): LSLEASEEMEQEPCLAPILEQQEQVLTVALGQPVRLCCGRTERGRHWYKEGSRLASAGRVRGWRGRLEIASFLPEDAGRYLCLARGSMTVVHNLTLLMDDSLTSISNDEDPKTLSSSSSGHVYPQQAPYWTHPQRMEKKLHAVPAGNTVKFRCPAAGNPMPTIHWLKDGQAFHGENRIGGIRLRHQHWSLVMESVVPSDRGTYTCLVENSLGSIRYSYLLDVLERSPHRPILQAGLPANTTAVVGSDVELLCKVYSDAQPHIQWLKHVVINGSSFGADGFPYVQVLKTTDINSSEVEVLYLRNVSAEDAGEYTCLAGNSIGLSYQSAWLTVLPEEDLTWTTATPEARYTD
Experiment [5] concerns the target T3, R1c/betaKlotho-expressing cells (Mus musculus, UniProt P16092+Q99N32).
T3 construct: the entire-length cDNA of mouse FGFR1c had been cloned; the entire-length cDNA of mouse betaKlotho was cloned into an animal cell expression vector; expressed in transfected cells; host or cells: BaF3 (mouse pro-B) cells
Put plainly: Phosphorylation of FRS2 and MAPK (Western blotting) in R1c/betaKlotho-expressing cells. It is filed as cell-based. The note with it: presence of heparin; 10 minutes stimulation. Here is the method: (§4) Each FGFR/betaKlotho-expressing cells obtained in Example 6 were stimulated with FGF, and the activated state (phosphorylated state) of a signaling molecule FRS2 (fibroblast growth factor receptor substrate 2) located downstream of FGFR, and that of MAPK (mitogen activated protein kinase; alias: ERK (extracellular signal-regulated kinase; in general, there are two types of ERKs, namely, ERK1 with a molecular weight of 44 kDa and ERK2 with a molecular weight of 42 kDa)), were analyzed. Different types of cells were stimulated with each FGF in the presence of heparin for 10 minutes, and a cell lysate was then prepared. Thereafter, the phosphorylated degree was evaluated by measuring it by a Western blotting method using a commercially available anti-phosphorylation FRS2 antibody or an anti-phosphorylation MAPK antibody.
Background: In western blotting, separated proteins are transferred to a membrane and probed.

Experiment [6] deals with T4, FGFR2c/betaKlotho-expressing cells (Mus musculus, UniProt P21803+Q99N32).
T4 construct: the entire-length cDNA of mouse betaKlotho was cloned into an animal cell expression vector; expressed in transfected cells; host or cells: BaF3 (mouse pro-B) cells
T4 sequence (P21803 22-821, one chain of several): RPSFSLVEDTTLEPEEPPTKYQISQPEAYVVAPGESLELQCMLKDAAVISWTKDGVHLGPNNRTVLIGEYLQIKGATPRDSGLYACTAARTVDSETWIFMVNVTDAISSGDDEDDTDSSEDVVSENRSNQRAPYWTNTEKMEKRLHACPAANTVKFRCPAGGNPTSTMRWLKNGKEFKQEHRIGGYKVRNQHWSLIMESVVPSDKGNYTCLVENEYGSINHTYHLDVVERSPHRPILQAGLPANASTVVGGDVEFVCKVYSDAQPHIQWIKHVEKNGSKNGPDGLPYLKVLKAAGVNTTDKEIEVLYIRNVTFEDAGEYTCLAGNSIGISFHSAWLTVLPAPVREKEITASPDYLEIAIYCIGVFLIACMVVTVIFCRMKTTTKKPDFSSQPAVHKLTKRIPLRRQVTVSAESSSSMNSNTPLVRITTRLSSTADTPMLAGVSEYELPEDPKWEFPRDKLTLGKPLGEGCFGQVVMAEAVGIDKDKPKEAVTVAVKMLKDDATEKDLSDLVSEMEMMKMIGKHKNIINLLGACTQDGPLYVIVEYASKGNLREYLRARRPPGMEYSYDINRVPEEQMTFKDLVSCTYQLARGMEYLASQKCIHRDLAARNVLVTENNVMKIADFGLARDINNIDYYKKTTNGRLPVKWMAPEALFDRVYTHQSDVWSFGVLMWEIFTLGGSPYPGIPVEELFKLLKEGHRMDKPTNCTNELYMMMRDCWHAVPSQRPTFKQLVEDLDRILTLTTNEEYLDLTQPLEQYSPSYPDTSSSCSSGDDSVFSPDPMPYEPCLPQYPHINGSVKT
Put plainly: Phosphorylation of FRS2 and MAPK (Western blotting) in FGFR2c/betaKlotho-expressing cells. Format: cell-based. The following applies: presence of heparin; 10 minutes stimulation. Here is the method:
as §4

The test system of experiment [7] is R3c/betaKlotho-expressing cells. The experiment is described as follows: Phosphorylation of FRS2 and MAPK (Western blotting) in R3c/betaKlotho-expressing cells. Format: cell-based, mouse. The following applies: presence of heparin; 10 minutes stimulation. Here is the method:
as §4

Experiment [8] concerns FGFR4/betaKlotho-expressing cells. The experiment is described as follows: Phosphorylation of FRS2 and MAPK (Western blotting) in FGFR4/betaKlotho-expressing cells. Format: cell-based, mouse. The note with it: presence of heparin; 10 minutes stimulation. Here is the method:
as §4

Experiment [9] deals with T5, betaKlotho-expressing BaF3 cells (Mus musculus, UniProt Q99N32).
T5 construct: the entire-length cDNA of mouse betaKlotho was cloned into an animal cell expression vector; expressed in transfected cells; host or cells: BaF3 (mouse pro-B) cells
T5 sequence (Q99N32 1-1043): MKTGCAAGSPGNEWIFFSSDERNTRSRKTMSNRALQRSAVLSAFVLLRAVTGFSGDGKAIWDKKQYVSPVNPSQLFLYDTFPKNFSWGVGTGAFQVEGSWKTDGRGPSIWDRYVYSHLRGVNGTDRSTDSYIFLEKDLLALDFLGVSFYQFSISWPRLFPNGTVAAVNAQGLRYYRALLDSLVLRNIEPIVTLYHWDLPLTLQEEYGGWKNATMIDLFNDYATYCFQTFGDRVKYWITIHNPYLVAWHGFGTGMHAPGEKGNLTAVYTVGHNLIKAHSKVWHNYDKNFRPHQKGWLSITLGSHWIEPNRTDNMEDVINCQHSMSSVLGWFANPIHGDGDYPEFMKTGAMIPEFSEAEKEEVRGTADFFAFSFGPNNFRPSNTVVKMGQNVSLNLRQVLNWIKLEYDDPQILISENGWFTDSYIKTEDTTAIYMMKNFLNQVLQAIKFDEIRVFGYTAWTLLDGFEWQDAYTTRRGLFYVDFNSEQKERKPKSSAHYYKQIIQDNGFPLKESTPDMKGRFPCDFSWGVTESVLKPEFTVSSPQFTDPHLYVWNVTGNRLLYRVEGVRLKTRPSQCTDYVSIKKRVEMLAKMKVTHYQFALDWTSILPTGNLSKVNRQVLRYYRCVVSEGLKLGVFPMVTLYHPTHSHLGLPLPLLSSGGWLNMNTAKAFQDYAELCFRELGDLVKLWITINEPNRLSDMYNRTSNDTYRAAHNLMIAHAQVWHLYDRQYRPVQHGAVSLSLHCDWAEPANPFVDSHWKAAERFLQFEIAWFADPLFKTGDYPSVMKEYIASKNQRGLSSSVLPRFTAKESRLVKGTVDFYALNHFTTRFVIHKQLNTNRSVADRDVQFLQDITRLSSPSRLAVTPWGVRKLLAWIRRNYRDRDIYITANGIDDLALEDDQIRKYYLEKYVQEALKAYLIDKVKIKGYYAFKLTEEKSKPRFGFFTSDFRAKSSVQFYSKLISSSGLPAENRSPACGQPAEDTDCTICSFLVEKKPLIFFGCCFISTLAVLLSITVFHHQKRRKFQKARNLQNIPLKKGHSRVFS
Put plainly: DNA synthesis (thymidine incorporation) in BaF3 cells expressing only betaKlotho. Format: cell-based. The note with it: presence or absence of heparin. Here is the method: as §1, with “10.) […]” for “10.)”
Immediately after inoculation, BaF3 cells that had expressed each clone and only FGFR1c were stimulated by addition of FGF21 (open bar) or PBS (filled bar) used as a control in the presence of heparin, and they were then cultured for 42 hours. […] Thereafter, the amount of thymidine incorporated into the cells was measured, so as to evaluate DNA synthesis. […]

“Also recorded” adds a separate entry of the source.

FGFR3c/betaKlotho-expressing BaF3 cells, sequence (Q61851 21-369 limits assumed, one chain of several): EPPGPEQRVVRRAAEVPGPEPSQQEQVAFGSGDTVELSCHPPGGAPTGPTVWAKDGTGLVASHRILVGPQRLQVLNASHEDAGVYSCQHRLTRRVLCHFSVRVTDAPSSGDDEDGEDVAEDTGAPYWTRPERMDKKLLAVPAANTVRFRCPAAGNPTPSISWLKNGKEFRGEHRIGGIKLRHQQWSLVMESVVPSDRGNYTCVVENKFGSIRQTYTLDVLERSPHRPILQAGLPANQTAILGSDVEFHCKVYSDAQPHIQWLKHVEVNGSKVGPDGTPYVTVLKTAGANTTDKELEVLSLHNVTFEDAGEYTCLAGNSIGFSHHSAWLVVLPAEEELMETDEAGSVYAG
FGFR4/betaKlotho-expressing cells, sequence (Q03142 143-366 limits assumed, one chain of several): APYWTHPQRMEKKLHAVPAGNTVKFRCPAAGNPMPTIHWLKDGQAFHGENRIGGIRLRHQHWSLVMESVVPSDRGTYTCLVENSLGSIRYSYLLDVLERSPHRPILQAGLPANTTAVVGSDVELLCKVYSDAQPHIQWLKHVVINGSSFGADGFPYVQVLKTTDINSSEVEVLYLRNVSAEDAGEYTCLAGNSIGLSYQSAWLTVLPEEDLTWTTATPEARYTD
R3c/betaKlotho-expressing cells, sequence (Q61851 21-369 limits assumed, one chain of several): as the sequence (Q61851 21-369 limits assumed, one chain of several) above
T3 sequence (P16092 22-822, one chain of several): as the sequence (P16092 22-822, one chain of several) above
T2 sequence (P21803 22-821, one chain of several): as the sequence (P21803 22-821, one chain of several) above

In the case of “FGF19: FGF family member evolutionally relative to FGF21, used for comparison”, the “DNA synthesis (thymidine incorporated into the cells)” value in experiment [1] (BaF3 cells expressing FGFR1c and betaKlotho, presence or absence of heparin) is given as “strong activity”; in experiment [2] (BaF3 cells expressing FGFR3c and betaKlotho) it was “strong activity”; in experiment [3], “strong activity”; in [4], “strong activity”. For the same substance, the “phosphorylation of FRS2 and MAPK” value in experiment [5], in [6], in experiment [7] and in experiment [8] was “significantly increase the phosphorylation” each time.

As to heparin [reference compound], the “effect of heparin on the action of FGF21 (DNA synthesis)” value in experiment [1] (FGFR1c/betaKlotho-expressing BaF3 cells stimulated with FGF21) is given as “increases the action of FGF21; also recorded: reactivity was increased”. In addition, in experiment [2] (FGFR3c/betaKlotho-expressing BaF3 cells stimulated with FGF21), the “effect of heparin on reactivity with FGF21 (DNA synthesis)” value was “reactivity was increased”.

Consider interleukin 3 [reference compound], for which the “DNA synthesis (thymidine incorporated into the cells)” value in experiment [9] is listed as “significantly grew”.
